Patent publication US6677355B1, “Hydroxamic acid compounds useful as matrix metalloproteinase inhibitors” (Warner-Lambert Company, priority 1999, dated 2004)

Assays:
[1] = biological target: T1, MMP-2FL (gelatinase A full-length enzyme) (Homo sapiens, UniProt P08253); experiment: MMP-2FL inhibition, thiopeptolide substrate hydrolysis; type: biochemical; conditions: average where multiple samples assayed
T1 sequence (P08253 110-660): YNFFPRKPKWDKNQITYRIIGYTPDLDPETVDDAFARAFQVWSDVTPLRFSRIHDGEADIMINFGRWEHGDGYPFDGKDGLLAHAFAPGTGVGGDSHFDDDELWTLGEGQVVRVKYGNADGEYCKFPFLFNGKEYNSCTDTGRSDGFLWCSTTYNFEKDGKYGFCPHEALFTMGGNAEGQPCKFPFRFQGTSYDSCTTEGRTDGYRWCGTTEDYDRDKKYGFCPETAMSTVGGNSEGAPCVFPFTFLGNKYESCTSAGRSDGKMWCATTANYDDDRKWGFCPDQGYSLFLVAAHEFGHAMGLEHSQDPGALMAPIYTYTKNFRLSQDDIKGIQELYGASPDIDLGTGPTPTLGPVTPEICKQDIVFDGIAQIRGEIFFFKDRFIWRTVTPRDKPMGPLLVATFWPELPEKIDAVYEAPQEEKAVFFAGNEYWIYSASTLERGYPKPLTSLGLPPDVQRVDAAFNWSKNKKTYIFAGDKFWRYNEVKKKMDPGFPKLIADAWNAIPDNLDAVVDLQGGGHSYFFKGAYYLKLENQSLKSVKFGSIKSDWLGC
Experimental: (§1) The compounds were evaluated in order to determine their respective IC50 values, i.e., the micromolar concentration of compound required to achieve a 50% inhibition of the hydrolytic activity of the respective enzymes.
(§2) Experiments were carried out with the full-length (“FL”) and/or catalytic domains (“CD”) of the proteinases. […] IC50 values were determined using a thiopeptolide substrate, Ac-Pro-Leu-Gly-thioester-Leu-Leu-Gly-OEt (Ye Q.-Z., Johnson L. L., Hupe D. J., and Baragi V., “Purification and Characterization of the Human Stromelysin Catalytic Domain Expressed in Escherichia coli,” Biochemistry, 1992;31:11231-11235; Ye Q.-Z., Johnson L. L., Yu A. E., and Hupe D., “Reconstructed 19 kDa Catalytic Domain of Gelatinase A IAAP,” Biochemistry, 1995;34:4702-4708.)
(§3) The tested MMPs are available to those skilled in the art. For example, MMP-1 can be obtained from Washington University School of Medicine, St. Louis, Mo. MMP-7 can be obtained in accordance with the known procedure set forth by Ye Q. Z., Johnson L. L., and Baragi V., “Gene Syntheses and Expression in E. coli for PUMP, a Human Matrix Metalloproteinase,” Biochem. and Biophys. Res. Comm., 1992;186:143-149. MMP-13 can be obtained in accordance with the known procedure set forth by Freije J. M. P. et al., “Molecular Cloning and Expression of Collagenase-3, a Novel Human Matrix Metalloproteinase Produced by Breast Carcinomas,” J. Bio. Chem., 1994;269:16766-16773. MMP-13CD can also be expressed from a synthetic gene and purified from Escherichia coli cell culture according to a previously described method (Ye Q.-Z., Johnson L. L., and Baragi V., “Gene Synthesis and Expression in E. coli for PUMP, a Human Matrix Metalloproteinase,” Biochemical and Biophysical Research Communications, 1992;186:143-149). Hydrolysis of the thiopeptolide substrate Ac-Pro-Leu-Gly-thioester-Leu-Leu-Gly-OEt (Bachem) was used as the primary screen to determine IC50 values for MMP inhibitors. A 100 μL reaction contains 1 mM 5,5′-dithiobis(2-nitrobenzoic acid) (DTNB), 100 μM substrate, 0.1% BRIJ® 35, PROTEIN GRADE®, Detergent, 10% solution, Sigma, St. Louis, Mo. [polyoxyethyleneglycol dodecyl ether; polyoxyethylene (23) lauryl ether], enzyme, and inhibitor in the appropriate reaction buffer. Activated full-length enzymes are assayed at 5 nM, Stromelysin Catalytic Domain (SCD) at 10 nM, and Gelatinase A Catalytic Domain (GaCD) at 1 nM. Inhibitors are screened from 100 μM to 1 nM. Full-length enzymes (e.g., MMP-1 and MMP-7) are assayed in 50 mM 4-(2-[…])-piperazine-1-ethane sulfonic acid (HEPES), 10 mM CaCl2, pH 7.0; SCD in 50 mM 2-morpholinoethane sulfonic acid monohydrate (MES), 10 mM CaCl2, pH 6.0; and GaCD in 50 mM 3-morpholtriopropane sulfonic acid (MOPS), 10 mM CaCl2, 10 μM ZnCl2, pH 7.0. The change in absorbance at 405 nanometers is monitored on a ThermoMax microplate reader at room temperature continuously for 20 minutes.
(§4) The number in parenthesis indicates the number of samples assayed.

[2] = biological target: T2, MMP-3CD (stromelysin-1 catalytic domain) (Homo sapiens, UniProt P08254); experiment: MMP-3CD inhibition, thiopeptolide substrate hydrolysis; type: biochemical; conditions: average where multiple samples assayed
T2 construct: MMP-3CD (stromelysin-1 catalytic domain); made in house; host or cells: Escherichia coli
T2 sequence (P08254 100-272 limits assumed): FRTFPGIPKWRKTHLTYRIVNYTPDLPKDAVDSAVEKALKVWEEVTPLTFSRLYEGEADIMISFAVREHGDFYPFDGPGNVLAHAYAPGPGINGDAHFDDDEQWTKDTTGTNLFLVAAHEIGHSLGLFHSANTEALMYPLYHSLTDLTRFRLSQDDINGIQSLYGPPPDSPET
Experimental: as §1, §2, §3, §4

[3] = biological target: MMP-9FL (gelatinase B full-length enzyme) (Homo sapiens, UniProt P14780); experiment: MMP-9FL inhibition, thiopeptolide substrate hydrolysis; type: biochemical; conditions: average where multiple samples assayed
Chain of MMP-9FL (gelatinase B full-length enzyme) (P14780 107-707 limits assumed, species assumed): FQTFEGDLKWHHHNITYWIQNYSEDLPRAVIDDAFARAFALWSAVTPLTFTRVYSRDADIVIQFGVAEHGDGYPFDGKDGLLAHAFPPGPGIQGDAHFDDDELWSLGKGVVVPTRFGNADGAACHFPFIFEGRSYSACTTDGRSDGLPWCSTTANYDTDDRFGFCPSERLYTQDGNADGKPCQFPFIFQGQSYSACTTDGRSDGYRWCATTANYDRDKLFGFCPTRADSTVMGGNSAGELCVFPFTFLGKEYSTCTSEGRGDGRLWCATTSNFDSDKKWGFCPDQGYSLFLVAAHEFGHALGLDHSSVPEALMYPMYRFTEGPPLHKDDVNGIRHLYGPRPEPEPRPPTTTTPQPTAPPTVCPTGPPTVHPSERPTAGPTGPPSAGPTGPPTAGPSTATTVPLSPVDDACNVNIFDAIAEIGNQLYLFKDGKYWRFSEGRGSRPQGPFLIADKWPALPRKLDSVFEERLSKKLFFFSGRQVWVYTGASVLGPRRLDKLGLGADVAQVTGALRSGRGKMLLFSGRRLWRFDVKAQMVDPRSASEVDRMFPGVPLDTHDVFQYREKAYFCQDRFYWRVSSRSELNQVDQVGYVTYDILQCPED
Experimental: as §1, §2, §3, §4

[4] = biological target: MMP-2CD (gelatinase A catalytic domain) (Homo sapiens, UniProt P08253); experiment: MMP-2CD inhibition, thiopeptolide substrate hydrolysis; type: biochemical; conditions: average where multiple samples assayed
Chain of MMP-2CD (gelatinase A catalytic domain) (P08253 with tags, fused parts or gaps DEL220-393): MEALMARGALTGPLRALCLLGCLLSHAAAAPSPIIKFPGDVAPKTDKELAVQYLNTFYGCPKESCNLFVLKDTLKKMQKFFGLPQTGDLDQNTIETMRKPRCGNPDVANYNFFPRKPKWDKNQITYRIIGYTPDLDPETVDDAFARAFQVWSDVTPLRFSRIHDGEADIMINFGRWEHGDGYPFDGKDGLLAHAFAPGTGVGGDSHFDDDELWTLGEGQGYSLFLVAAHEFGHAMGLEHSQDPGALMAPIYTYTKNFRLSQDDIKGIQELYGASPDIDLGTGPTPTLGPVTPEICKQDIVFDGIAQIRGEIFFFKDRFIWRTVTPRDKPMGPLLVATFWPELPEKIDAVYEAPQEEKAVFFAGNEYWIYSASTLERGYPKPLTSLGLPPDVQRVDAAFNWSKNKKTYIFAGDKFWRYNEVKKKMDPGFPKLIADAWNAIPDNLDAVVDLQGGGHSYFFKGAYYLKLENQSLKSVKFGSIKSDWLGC
Experimental: as §1, §2, §3, §4

[5] = biological target: T3, MMP-7FL (matrilysin full-length enzyme) (Homo sapiens, UniProt P09237); experiment: MMP-7FL inhibition, thiopeptolide substrate hydrolysis; type: biochemical; conditions: average where multiple samples assayed
T3 construct: made in house; host or cells: E. coli
T3 sequence (P09237 95-267): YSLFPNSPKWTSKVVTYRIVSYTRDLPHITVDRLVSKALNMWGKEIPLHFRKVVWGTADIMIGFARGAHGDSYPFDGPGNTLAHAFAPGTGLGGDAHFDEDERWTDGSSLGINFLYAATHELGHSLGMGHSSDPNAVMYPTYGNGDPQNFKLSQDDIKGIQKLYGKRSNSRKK
Experimental: as §1, §2, §3, §4

[6] = biological target: T4, MMP-14CD (membrane-type MMP-1 catalytic domain) (Homo sapiens, UniProt P50281); experiment: MMP-14CD inhibition, thiopeptolide substrate hydrolysis; type: biochemical; conditions: average where multiple samples assayed
T4 construct: MMP-14CD (membrane-type MMP-1 catalytic domain)
Experimental: as §1, §2, §3, §4

[7] = biological target: T5, MMP-1FL (collagenase-1 full-length enzyme) (Homo sapiens, UniProt P03956); experiment: MMP-1FL inhibition, thiopeptolide substrate hydrolysis; type: biochemical; conditions: average where multiple samples assayed
T5 construct: purchased Washington University School of Medicine, St. Louis, Mo
T5 sequence (P03956 100-469): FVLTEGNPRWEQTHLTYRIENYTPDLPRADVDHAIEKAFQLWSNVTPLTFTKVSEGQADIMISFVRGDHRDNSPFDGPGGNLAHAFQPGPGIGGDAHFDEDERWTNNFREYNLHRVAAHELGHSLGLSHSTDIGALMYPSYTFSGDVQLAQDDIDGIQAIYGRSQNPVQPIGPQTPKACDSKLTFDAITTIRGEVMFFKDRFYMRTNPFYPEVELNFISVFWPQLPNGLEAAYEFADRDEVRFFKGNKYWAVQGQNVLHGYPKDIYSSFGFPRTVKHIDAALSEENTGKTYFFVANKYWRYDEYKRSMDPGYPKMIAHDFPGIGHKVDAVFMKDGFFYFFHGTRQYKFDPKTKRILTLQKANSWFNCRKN
Experimental: as §1, §2, §3, §4

[8] = biological target: T6, MMP-13CD (collagenase-3 catalytic domain) (Homo sapiens, UniProt P45452); experiment: MMP-13CD inhibition, thiopeptolide substrate hydrolysis; type: biochemical; conditions: average where multiple samples assayed
T6 construct: MMP-13CD (collagenase-3 catalytic domain); made in house; host or cells: Escherichia coli
Experimental: as §1, §2, §3, §4

SMILES	IC50 [1]	IC50 [2]	melting point	IC50 [3]	IC50 [4]	IC50 [5]	IC50 [6]	IC50 [7]	IC50 [8]
O=C(O)C1(NS(=O)(=O)c2ccc3c(c2)oc2ccccc23)CCCCC1 [Example 27, 1-(Dibenzofuran-3-sulfonylamino)-cyclohexanecarboxylic acid]	23 nM	9.25 nM	239 to 243 °C	3700 nM	2.7 nM	4250 nM	26.5 nM	1750 nM	230 nM
O=C(NO)C1(NS(=O)(=O)c2ccc3c(c2)oc2ccccc23)CCCCC1 [Example 28, 1-(Dibenzofuran-3-sulfonylamino)-cyclohexanecarboxylic acid hydroxyamide]	4.5 nM	15.5 nM	184 to 186 °C	135 nM	1.7 nM	4050 nM	3.9 nM	295 nM	49 nM
CC(C)(NS(=O)(=O)c1ccc2c(c1)oc1ccccc12)C(=O)O [Example 29, 2-(Dibenzofuran-3-sulfonylamino)-2-methyl-propionic acid]	19.8 nM	8.35 nM	220 to 224 °C	11500 nM	2.65 nM	34000 nM	22.5 nM	8250 nM	450 nM
CC(C)(NS(=O)(=O)c1ccc2c(c1)oc1ccccc12)C(=O)NO [Example 30, 2-(Dibenzofuran-3-sulfonylamino)-N-hydroxy-2-methyl-propionamide]	4.75 nM	83.5 nM	168 to 169 °C	860 nM	4.3 nM	100000 nM	13.5 nM	905 nM	105 nM
O=C(NO)C1(NS(=O)(=O)c2ccc3c(c2)oc2ccccc23)CCOCC1 [Example 31, 4-(Dibenzofuran-3-sulfonylamino)-tetrahydro-pyran-4-carboxylic acid hydroxyamide]	5.25 nM	14.7 nM	160 to 162 °C	250 nM	2.3 nM	3000 nM	5.75 nM	380 nM	48 nM
O=C(NO)C1(NS(=O)(=O)c2ccc3oc4cc(Br)ccc4c3c2)CCCC1 [Example 32, 1-(7-Bromo-dibenzofuran-2-sulfonylamino)-cyclopentane carboxylic acid hydroxamide]	205 nM	35 nM		13000 nM	82.7 nM	350 nM	340 nM	5750 nM	165 nM
CC(C)(NS(=O)(=O)c1ccc2oc3cc(Cl)ccc3c2c1)C(=O)NO [Example 33, 2-(7-Chloro-dibenzofuran-2 sulfonylamino)-N-hydroxy-2-methyl-propionamide]	125 nM	43 nM		15000 nM	81 nM	920 nM	300 nM	3050 nM	110 nM
